Data taken from patent US12304933B2, “Disease treatment drug based on mesenchymal-stem-cell mobilization” (StemRIM Inc., priority 2018, dated 2025).

Experiments:
[1] = test system: mesenchymal stem cells in peripheral blood; assay: Solid-phase culture of peripheral blood after administration of HMGB1 peptide 1-44 (earlier experiments of the inventors); type: in vivo
Excerpt: In addition, the colonies obtained as a result of culturing, on a solid phase, peripheral blood after administration of a peptide consisting of amino acid residues 1-44 of the human HMGB1 protein (hereinafter, HMGB1 peptide 1-44), which has an activity of mobilizing mesenchymal stem cells into peripheral blood, have been confirmed to have adherability to solid phase and self-renewal ability, and to be PDGFRα positive. They have also been confirmed to have a gene expression profile characteristic to mesenchymal stem cells, based on the results of clustering the transcriptome analysis data and performing gene ontology analysis.
Furthermore, it has been confirmed that the number of colonies obtained by solid-phase culture is larger in the peripheral blood after administration of HMGB1 peptide 1-44 than in the peripheral blood after administration of physiological saline.

psoriasis model mice = assay: Auricular thickness in imiquimod-induced psoriasis model mice; type: in vivo, C57BL/6 mice; conditions: 5% imiquimod cream on auricular skin once a day for seven days; 5 mg/kg/day peptide into tail vein for seven days; n=4; FIG. 9
Description: To induce psoriasis by imiquimod, a cream containing 5% imiquimod (Beseruna cream 5%, Mochida Pharmaceutical Co., Ltd.) was used. In the drawing corresponding to the Example of the present application, imiquimod is referred to as IMQ. In addition, the peptide NP-3 (TFA salt) described in Example 1 was used as a test substance.
C57BL/6 mice (7 weeks old, female, body weight about 20 g) were prepared. To induce psoriasis, a cream containing 5% imiquimod was applied on the auricular skin of the mice at an amount of 25 mg/ear/day (1.25 mg/ear/day imiquimod) once a day for seven days. Moreover, mice without imiquimod application (hereinafter, referred to as “normal mice”) were used as a comparison target.
The psoriasis model mice prepared as described above were divided into a peptide-administered group (n=4) and a control group (n=4). […]
During the test period, the auricle thickness of mice was measured daily using a micrometer (manufactured by Mitutoyo Co., Ltd., Product No. CLM1-15QM), and the size of change from the auricle thickness before the start of imiquimod application (Day 0) was calculated. The degree of skin thickening was evaluated using the size of change as an index.

Substance	number of colonies obtained by solid-phase culture of peripheral blood, compared with peripheral blood after administration of physiological saline [1]	increase in auricular thickness as compared with the control group (psoriasis model mice)
HMGB1 peptide 1-44: peptide consisting of amino acid residues 1-44 of the human HMGB1 protein, which has an activity of mobilizing mesenchymal stem cells into peripheral blood (MGKGDPKKPRGKMSSYAFFVQTCREEHKKKHPDASVNFSEFSKK; UniProt P09429 1-44, looked up, fragment)	larger	
NP-3: Chemically synthesized fragment peptide of mouse YBX1 protein, positions 174-203, SEQ ID NO: 37 (SAPEGQAQQRRPYRRRRFPPYYMRRPYARR; listed as Mus musculus)		suppressed
